Values quoted from earlier work, collected in US20120015039A1, “SUSTAINED RELEASE OF NUTRIENTS IN VIVO” (New World Pharmaceuticals, LLC, priority 2007, published 2012).

What was measured:
mice = details: mouse, in vivo, iv

Compound | LD50 (mice) | concentration at which formation of EP is inhibited (Na/K ATPase)
COC(=O)C1=CO[C@@H](O)[C@@H]2C(CO)=CC[C@H]12 [Genipin] | 382 mg/kg | –
[O]=[V]([O-])([O-])[O-] [vanadate] | – | less than 1 micromolar
